Peptide text beside a SMILES is read from it.
Tests used:
[1] = Generation of dipeptide methyl esters from amino acid methyl esters by MP or PMN (TLC); type: in vitro ADME, human; details: equal concentrations of Leu-OMe, Val-OMe or Phe-OMe added
Protocol: MP or PMN (prepared as in Example 1) at a concentration of 25×10^6 per ml were suspended in PBS and incubated with 25 mM Leu-OMe for 20 minutes at 22~C. Cell suspensions were then centrifuged at 1000 g for 10 minutes and the supernatants harvested and freeze-dried at -70~C., 100 millitorr atmospheric pressure. In some experiments, Leu-OMe-treated MP or PMN were sonicated to increase the yield of the reaction product. Samples were then extracted with methanol for application to thin layer chromatography (TLC) plates ([…]×20 cm^2, Analtech, Newark, Del.). Following development with chloroform/methanol/acetic acid (19 1:12.5 by volume), 1 cm bands were eluted with methanol, dried under nitrogen, and resuspended in 1 ml PBS. Mass spectra were obtained with a Finnegan Model 4021 automated EI/CI, GC/MS system coupled to an Incos data system. […]
In order to determine whether MP or PMN could generate the relevant dipeptide methyl esters from these amino acid methyl esters, TLC analysis of the supernatants of MP and PMN incubated with these compounds was carried out. […] However, when equal concentrations of Leu-OMe, Val-OMe, or Phe-OMe were added to MP or PMN, the concentrations of Val-Val-OMe generated were 50 to 80% of those found for Leu-Leu-OMe, while Phe-Phe-OMe was detected at only 10-30% of the levels of Leu-Leu-OMe. […]

[2] = system: natural killer cells (NK); assay: NK function: lysis of K562 target cells (51Cr release) after preincubation of lymphocytes with compound; details: lymphocytes exposed 15 minutes at room temperature (FIG. 4, FIG. 5)

COC(=O)[C@H](Cc1ccccc1)NC(=O)[C@@H](N)Cc1ccccc1 [Phe-Phe-OMe] (H-Phe-Phe-OMe)
concentration generated by MP or PMN, relative to Leu-Leu-OMe [1]: 10-30% | NK toxicity / effect on NK function, in words [2]: less NK toxic than either Leu-Phe-OMe or Phe-Leu-OMe
